Like-named read-outs stand apart in the source and are kept apart here.
Columns and labels:
[1] = target: CYP2C19 (Homo sapiens, UniProt P33261); experiment: CYP2C19 inhibition, S-mephenytoin 4'-hydroxylase assay in human liver microsomes; format: in vitro ADME; parameters: from tissue; host or cells: in vivo, 14 healthy male subjects; details: for IC50: estimated
Experimental: Inhibition of the biotransformation of CYP‐specific substrates by GLPG1205 was studied using human liver microsomes. Incubation was performed at 37°C with the following conditions: n = 3 for all assays; 0.1 M phosphate buffer (pH 7.4), the cofactor nicotinamide adenine dinucleotide phosphate (NADPH) incubated at 2 mM, the CYP‐specific substrate incubated at 1 nonsaturating concentration, and GLPG1205. Additional incubation was performed with (1) a 30‐minute preincubation step of GLPG1205 with microsomes before the addition of the cofactor NADPH and CYP substrate; and (2) a 30‐minute preincubation step of GLPG1205 with microsomes and the cofactor NADPH, before the addition of the CYP substrate. […] The CYP‐specific substrates were incubated per the above conditions at the following concentrations: tolbutamide, 200 μM, CYP2C9 substrate; S‐mephenytoin, 60 μM, CYP2C19 substrate; phenacetin, 40 μM, CYP1A2 substrate.
Further details of the assays used for each CYP substrate are reported in the Supplemental Methods. Metabolites of the CYP‐specific substrates (acetaminophen for CYP1A2, hydroxytolbutamide for CYP2C9, hydroxymephenytoin for CYP2C19) were quantified using LC‐MS/MS.
Enzymatic activity in the presence of GLPG1205 was expressed as a percentage of the control activity obtained with the vehicle only (ie, without GLPG1205 or reference inhibitor). Decreases in activity of less than 20% were not considered clinically relevant.
Protocol for CYP Inhibition of the biotransformation of CYP-specific substrates by GLPG1205 was studied using human liver microsomes.^7 Incubations were performed at 37°C with the following conditions: n = 3 for all assays; 0.1 M phosphate buffer pH 7.4; the cofactor β-nicotinamide adenine dinucleotide phosphate (NADPH) incubated at 2 mM; the CYP-specific substrate incubated at one non-saturating concentration; and GLPG1205. Additional incubations were performed with: 1) a 30-minute preincubation step of GLPG1205 with microsomes before addition of the cofactor NADPH and CYP substrate; and 2) a 30-minute preincubation step of GLPG1205 with microsomes and the cofactor NADPH, before addition of the CYP substrate.
The CYP-specific substrates were incubated at the following conditions: tolbutamide (200 µM; CYP2C9); S-mephenytoin (60 µM; CYP2C19); phenacetin (40 µM; CYP1A2).^8-10 Reference inhibitors (as detailed in the previous section) were incubated in parallel. […]
A two-fold dilution in D3-OH-mephenytoine at 1 µM in water with 0.1% formic acid was applied to the supernatants and then analysis was performed by LC-MS/MS with chromatographic separation. […] The quantification of the metabolite, hydroxymephenytoin, was performed in MRM mode using the 235.1 to 150.2 transition. […]

[2] = Phase 1 drug-drug interaction study: safety and tolerability (adverse events)
[3] = GLPG1205 100 mg once a day + CYP450 substrates, n = 14
[4] = GLPG1205 100 mg once a day alone, n = 14

Chain of CYP2C19 (P33261 whole entry): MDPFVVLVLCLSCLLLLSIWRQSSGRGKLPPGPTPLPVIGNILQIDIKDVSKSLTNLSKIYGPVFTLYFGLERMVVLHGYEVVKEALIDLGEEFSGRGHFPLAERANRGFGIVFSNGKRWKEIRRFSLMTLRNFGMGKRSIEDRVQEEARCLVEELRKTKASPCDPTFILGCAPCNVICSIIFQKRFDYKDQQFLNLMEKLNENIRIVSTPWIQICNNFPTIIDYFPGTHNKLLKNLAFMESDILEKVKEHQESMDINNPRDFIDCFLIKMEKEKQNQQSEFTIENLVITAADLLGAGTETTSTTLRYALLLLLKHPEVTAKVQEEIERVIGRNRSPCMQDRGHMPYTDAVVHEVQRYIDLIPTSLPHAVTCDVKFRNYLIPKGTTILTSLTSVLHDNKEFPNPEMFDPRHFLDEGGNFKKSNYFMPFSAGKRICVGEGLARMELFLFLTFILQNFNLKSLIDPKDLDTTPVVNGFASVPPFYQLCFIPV

O=c1nc(OC[C@@H]2COCCO2)cc2n1CCc1cc(C#CC3CC3)ccc1-2 [GLPG1205, 9‐cyclopropylethynyl‐2‐[(S)‐1‐(1,4)dioxan‐2‐ylmethoxy]‐6,7‐dihydropyrimido[6,1‐a]isoquinolin‐4‐one]
inhibition of CYP2C19 in words ([1]; GLPG1205 50‐100 μM): moderate and reversible | IC50 ([1]; human liver microsomes, read-out: IC50 for inhibition of CYP2C19): ≥ 50 µM | IC50 ([1]; equivalent of ≥50 μM, read-out: IC50 for inhibition of CYP2C19, equivalent): ≥ 49.9 µM | inhibition at 20 min ([1]; human, liver microsomes, pH 7.4, probe S-mephenytoin 60 µM, GLPG1205 50‐100 μM without preincubation, S‐mephenytoin 60 μM): 44.2 to 49.3% | Any TEAE [2, 3]: 3 (21.4) n (%) | Gastrointestinal disorders [2, 3]: 0 n (%) | General disorders and general administration‐site conditions [2, 3]: 0 n (%) | Headache [2, 3]: 1 (7.1) n (%) | Influenza‐like illness [2, 3]: 0 n (%) | Musculoskeletal and connective tissue disorders [2, 3]: 1 (7.1) n (%) | Myalgia [2, 3]: 1 (7.1) n (%) | Nausea [2, 3]: 0 n (%) | Nervous system disorders [2, 3]: 1 (7.1) n (%) | Oropharyngeal pain [2, 3]: 1 (7.1) n (%) | Pain [2, 3]: 0 n (%) | Respiratory, thoracic, and mediastinal disorders [2, 3]: 1 (7.1) n (%) | Any TEAE [2, 4]: 9 (64.3) n (%) | Back pain [2, 4]: 0 n (%) | Disturbance in attention [2, 4]: 2 (14.3) n (%) | Eye disorders [2, 4]: 1 (7.1) n (%) | Fatigue [2, 4]: 1 (7.1) n (%) | Flatulence [2, 4]: 1 (7.1) n (%) | Flushing [2, 4]: 1 (7.1) n (%) | Gastroenteritis [2, 4]: 1 (7.1) n (%) | Gastrointestinal disorders [2, 4]: 1 (7.1) n (%) | General disorders and general administration‐site conditions [2, 4]: 1 (7.1) n (%) | Headache [2, 4]: 5 (35.7) n (%) | Hyperhidrosis [2, 4]: 0 n (%) | Infections and infestations [2, 4]: 1 (7.1) n (%) | Lacrimation increased [2, 4]: 1 (7.1) n (%) | Musculoskeletal and connective tissue disorders [2, 4]: 1 (7.1) n (%) | Myalgia [2, 4]: 1 (7.1) n (%) | Nasopharyngitis [2, 4]: 0 n (%) | Nervous system disorders [2, 4]: 8 (57.1) n (%) | Oropharyngeal pain [2, 4]: 1 (7.1) n (%) | Paresthesia [2, 4]: 1 (7.1) n (%) | Presyncope [2, 4]: 1 (7.1) n (%) | Rash [2, 4]: 0 n (%) | Respiratory, thoracic, and mediastinal disorders [2, 4]: 1 (7.1) n (%) | Skin and subcutaneous tissue disorders [2, 4]: 0 n (%) | Vascular disorders [2, 4]: 1 (7.1) n (%) | Vision blurred [2, 4]: 0 n (%) | moderate presyncope, subjects ([2]; GLPG1205 alone): 1 n | moderate oropharyngeal pain, subjects ([2]; GLPG1205 plus CYP450 substrates): 1 n | deaths or serious AEs ([2]; during the study): no deaths or serious AEs | laboratory safety tests, ECG, vital signs, physical examination ([2]; during the study): No clinically significant trends or abnormalities

From paper PMC8453848, “Effect of GLPG1205, a GPR84 Modulator, on CYP2C9, CYP2C19, and CYP1A2 Enzymes: In Vitro and Phase 1 Studies” (Clinical Pharmacology in Drug Development, 2021)
